Like-named read-outs stand apart in the source and are kept apart here.
How the values were obtained:
[1] = target: T1, Human, recombinant dihydrofolate reductase (Homo sapiens, UniProt P00374); experiment: Human DHFR assay; type: biochemical
T1 construct: purchased Sigma D6566
T1 sequence (P00374 1-187): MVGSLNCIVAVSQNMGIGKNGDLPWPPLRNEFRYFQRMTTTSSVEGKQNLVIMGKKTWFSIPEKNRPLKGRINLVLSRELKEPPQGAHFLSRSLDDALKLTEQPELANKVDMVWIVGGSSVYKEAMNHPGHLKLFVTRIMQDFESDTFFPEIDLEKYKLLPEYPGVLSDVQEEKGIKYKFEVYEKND
Procedure: The assay is an adaptation for 96-well plate format from Appleman et al. (Appleman, J R; Howell, E E; Kraut, J; Kuhl, M and Blakley, R L (1988) J. Biol. Chem. 263, 9187-9198). Human, recombinant dihydrofolate reductase (Sigma, D6566) was incubated along with test compounds ([…]) and NADPH (Sigma, N-7505) in 96-well plates. After a 10 min. pre-incubation at room temperature, dihydrofolic acid (Sigma, D7006) was added and the kinetic traces at 340 nm measured on a Spectra Max 190 plate reader at room temperature. Reaction rates were determined from the slopes of the linear portions of the progress curves. The final assay conditions were 0.014 units DHFR, 300 μM NADPH, 30 μM Dihydrofolic acid, 50 mM TRIS, pH 7.6, 100 mM NaCl and 1.25% DMSO. Each compound was measured in duplicates on every assay plate. Each assay plate contained 12 positive controls (DMSO only) and 12 negative controls (no dihydrofolic acid). All data was percent normalized with respect to controls and presented as percent inhibition. Inhibition data was analyzed using Prism and fit to a standard 4-parameter logistic equation to calculate IC50 values.

SMN2 promoter = SMN2 promoter assay in NSC-34 cells (β-lactamase reporter); type: cell-based, mouse
Excerpt: All compounds were screened using an in vitro based SMN2 promoter assay. We used NSC-34 cells, a hybrid cell line between mouse spinal cord cells and mouse neuroblastoma cells. NSC-34 cells harbor an expression plasmid containing a 3.4 kb promoter fragment of the SMN2 gene driving β-lactamase expression.
[…] […] CCF2-AM diffuses across the plasma membrane and is converted into an active β-lactamase substrate by cytoplasmic esterase. […] The fold induction is proportional to the extent of β-lactamase produced and in turn proportional to SMN2 promoter activation for a given compound relative to vehicle (DMSO) control. […] These values are used to rank activities of the compounds and derive structure activity relationship.

[2] = Mus musculus, Table 1, SMN2 promoter driving β-lactamase, 12 point dose curve, read-out: Promoter Assay EC50
[3] = Mus musculus, Table 5, SMN2 promoter driving β-lactamase, read-out: Promoter Assay EC50
[4] = Table 3, SMN2 promoter driving β-lactamase, read-out: Promoter Assay EC50
[5] = Mus musculus, Table 3, SMN2 promoter driving β-lactamase, read-out: Promoter Assay EC50
[6] = Table 1, SMN2 promoter driving β-lactamase, 12 point dose curve, read-out: Promoter Assay EC50

SMILES | IC50 ([1]; Table 1, read-out: hDHFR IC50) | EC50 (SMN2 promoter; [2]) | EC50 (SMN2 promoter; [6]) | also measured
Nc1nc(N)c2c(OCC3CCN(CC4CCNCC4)CC3)cccc2n1 [Example-151] | > 100000 nM | < 1000 nM | – | –
Nc1nc(N)c2c(OCCN3CCN(C(=O)c4ccccc4F)CC3)cccc2n1 [Example-215, {4-[2-(2,4-Diamino-quinazolin-5-yloxy)-ethyl]-piperazin-1-yl}-(2-fluoro-phenyl)-methanone] | – | – | – | IC50 ([1]; Table 5, read-out: hDHFR IC50): < 20000 nM; EC50 (SMN2 promoter; [3]): < 1000 nM
Nc1nc(N)c2c(OCC3CCN(C(=O)c4ccc(Cl)cc4)CC3)cccc2n1 [Example-016, (4-Chlorophenyl)-[4-(2,4-diaminoquinazolin-5-yloxymethyl)piperidin-1-yl]methanone] | > 100000 nM | < 1000 nM | – | –
CN(C)c1cccc(CN2CCC(COc3cccc4nc(N)nc(N)c34)CC2)c1 [Example-134] | 20000 to 100000 nM | < 1000 nM | – | –
Nc1nc(N)c2c(OCC3CCC(Cc4ccccc4F)CC3)cccc2n1 (centres unmarked) [Example-154, 5-[4-(2-Fluorobenzyl)cyclohexylmethoxy]quinazoline-2,4-diamine] | – | – | – | IC50 ([1]; Table 2, read-out: hDHFR IC50): 20000 to 100000 nM; EC50 (SMN2 promoter; Mus musculus, Table 2, SMN2 promoter driving β-lactamase, read-out: Promoter Assay EC50): < 1000 nM
Nc1nc(N)c2c(OCC3CCN(CC(F)F)CC3)cccc2n1 [Example-159] | – | – | – | IC50 ([1]; Table 3, read-out: hDHFR IC50): > 100000 nM; EC50 (SMN2 promoter; [4]): < 1000 nM
Nc1nc(N)c2c(OCCN3CCN(S(=O)(=O)c4ccccc4)CC3)cccc2n1 [Example-209, 5-[2-(4-Benzenesulfonyl-piperazin-1-yl)-ethoxy]-quinazoline-2,4-diamine] | – | – | – | IC50 ([1]; Table 5, read-out: hDHFR IC50): < 20000 nM; EC50 (SMN2 promoter; [3]): < 1000 nM
CC(C)CCN1CCC(COc2cccc3nc(N)nc(N)c23)CC1 [Example-139] | > 100000 nM | < 1000 nM | – | –
Nc1nc(N)c2c(OCCN3CCN(C(=O)c4ccc(F)cc4F)CC3)cccc2n1 [Example-207, {4-[2-(2,4-Diamino-quinazolin-5-yloxy)-ethyl]-piperazin-1-yl}-(2,4-difluoro-phenyl)-methanone] | – | – | – | IC50 ([1]; Table 5, read-out: hDHFR IC50): 20000 to 100000 nM; EC50 (SMN2 promoter; [3]): < 1000 nM
Cc1cccc(C)c1CN1CCC(COc2cccc3nc(N)nc(N)c23)CC1 [Example-158] | – | – | – | IC50 ([1]; Table 3, read-out: hDHFR IC50): > 100000 nM; EC50 (SMN2 promoter; [4]): < 1000 nM
Nc1nc(N)c2c(OCC3CCN(Cc4c(F)cccc4C(F)(F)F)CC3)cccc2n1 [Example-160, 5-[1-(2-Fluoro-6-trifluoromethylbenzyl)piperidin-4-ylmethoxy]quinazoline-2,4-diamine] | – | – | – | IC50 ([1]; Table 3, read-out: hDHFR IC50): > 100000 nM; EC50 (SMN2 promoter; [5]): < 1000 nM
Nc1nc(N)c2c(OCC3CCN(C(=O)c4cccc(F)c4F)CC3)cccc2n1 [Example-024, [4-(2,4-Diaminoquinazolin-5-yloxymethyl)piperidin-1-yl]-(2,3-difluorophenyl)methanone] | 20000 to 100000 nM | < 1000 nM | – | –
COc1ccccc1CN1CCC(COc2cccc3nc(N)nc(N)c23)CC1 [Example-113] | > 100000 nM | – | < 1000 nM | –
Nc1nc(N)c2c(OCC3CCN(c4ccccc4F)CC3)cccc2n1 [Examplc-155, 5-[1-(2-Fluorophenyl)piperidin-4-ylmethoxy]quinazoline-2,4-diamine] | – | – | – | IC50 ([1]; Table 3, read-out: hDHFR IC50): < 20000 nM; EC50 (SMN2 promoter; [5]): < 1000 nM
Nc1nc(N)c2c(OCC3CCN(CC(F)(F)F)CC3)cccc2n1 [Example-165] | – | – | – | IC50 ([1]; Table 3, read-out: hDHFR IC50): > 100000 nM; EC50 (SMN2 promoter; [4]): < 1000 nM
Cc1cccc(CN2CCC(COc3cccc4nc(N)nc(N)c34)CC2)c1 [Example-008, 5-[1-(3-Methylbenzyl)piperidin-4-ylmethoxy]quinazoline-2,4-diamine] | > 100000 nM | < 1000 nM | – | –

SMILES | IC50 ([1]; Table 1, read-out: hDHFR IC50) | EC50 (SMN2 promoter; [2]) | EC50 (SMN2 promoter; [6]) | also measured
Nc1nc(N)c2c(OCC3CCN(Cc4ccccc4F)CC3)cccc2n1 [Example-001] | 20000 to 100000 nM | – | – | –
Cc1ccc(S(=O)(=O)N2CCC(COc3cccc4nc(N)nc(N)c34)CC2)cc1 [Example-033] | – | – | < 1000 nM | –
Cc1cccc(C(=O)N2CCC(COc3cccc4nc(N)nc(N)c34)CC2)c1 [Example-020, [4-(2,4-Diaminoquinazolin-5-yloxymethyl)piperidin-1-yl]-m-tolylmethanone] | – | < 1000 nM | – | –
Nc1nc(N)c2c(OCC3CCN(C(=O)c4ccc(F)c(F)c4)CC3)cccc2n1 [Example-023, [4-(2,4-Diaminoquinazolin-5-yloxymethyl)piperidin-1-yl]-(3,4-difluorophenyl)methanone] | – | < 1000 nM | – | –
Nc1nc(N)c2c(OCC3CCN(C(=O)c4ccc(OC(F)(F)F)cc4)CC3)cccc2n1 [Example-063] | – | – | < 1000 nM | –
CC(C)c1ccc(S(=O)(=O)N2CCC(COc3cccc4nc(N)nc(N)c34)CC2)cc1 [Example-089] | – | – | < 1000 nM | –
CC(=O)Nc1nc(CN2CCC(COc3cccc4nc(N)nc(N)c34)CC2)cs1 [Example-094] | – | – | < 1000 nM | –
Nc1nc(N)c2c(OCC3CCN(C(=O)c4cccc(C(F)(F)F)c4F)CC3)cccc2n1 [Example-110] | – | – | < 1000 nM | –
Nc1nc(N)c2c(OCC3CCN(Cc4cccc(C(=O)O)c4)CC3)cccc2n1 [Example-222, 3-[4-(2,4-Diamino-quinazolin-5-yloxymethyl)-piperidin-1-ylmethyl]-benzoic acid] | – | 1000 to 5000 nM | – | –
CC(C)(Oc1cccc2nc(N)nc(N)c12)C1CCN(Cc2c(F)cccc2Cl)CC1 [Example-225, 5-{1-[1-(2-Chloro-6-fluoro-benzyl)-piperidin-4-yl]-1-methyl-ethoxy}-quinazoline-2,4-diamine] | – | – | – | EC50 (SMN2 promoter; Mus musculus, Table 6, SMN2 promoter driving β-lactamase, read-out: Promoter Assay EC50): < 1000 nM
Cc1noc(C)c1S(=O)(=O)N1CCC(COc2cccc3nc(N)nc(N)c23)CC1 [Example-076] | – | – | < 1000 nM | –
Cc1cc(C(=O)N2CCC(COc3cccc4nc(N)nc(N)c34)CC2)no1 [Example-059] | – | – | < 1000 nM | –
Nc1nc(N)c2c(OCC3(S(=O)(=O)c4ccc(F)c(F)c4)CCNCC3)cccc2n1 [Example-035, 5-[4-(3,4-Difluorobenzenesulfonyl)-piperidin-4-ylmethoxy]quinazoline-2,4-diamine] | – | < 1000 nM | – | –
Nc1nc(N)c2c(OCC3CCN(C(=O)c4c(F)cccc4F)CC3)cccc2n1 [Example-107] | – | – | < 1000 nM | –
Nc1nc(N)c2c(OCC3CCN(C(=O)c4ccc(Cl)cc4Cl)CC3)cccc2n1 [Example-060] | – | – | < 1000 nM | –
Nc1nc(N)c2c(N3CCN(Cc4ccc5c(c4)OCO5)CC3)cccc2n1 [Example-182, 5-(4-Benzo[1,3]dioxol-5-ylmethyl-piperazin-1-yl)-quinazoline-2,4-diamine] | – | – | – | EC50 (SMN2 promoter; Mus musculus, Table 4, SMN2 promoter driving β-lactamase, read-out: Promoter Assay EC50 for 2391.003C(P)): < 1000 nM

Second part, led by results:

IC50 ([1]; Table 1, read-out: hDHFR IC50) | EC50 (SMN2 promoter; [2]) | EC50 (SMN2 promoter; [6]) | SMILES | also measured
> 100000 nM | 1000 to 5000 nM | – | Nc1nc(N)c2c(OCC3CCN(CC4CCCCO4)CC3)cccc2n1 (centres unmarked) [Example-125] | –
20000 to 100000 nM | < 1000 nM | – | Nc1nc(N)c2c(OCC3CCN(Cc4ccccc4Cl)CC3)cccc2n1 [Example-003] | –
> 100000 nM | < 1000 nM | – | Nc1nc(N)c2c(OCC3CCN(CC4CC4)CC3)cccc2n1 [Example-095] | –
> 100000 nM | < 1000 nM | – | Cc1cccc(CN2CCC(COc3cccc4nc(N)nc(N)c34)CC2)c1F [Example-092] | –
< 20000 nM | < 1000 nM | – | Nc1nc(N)c2c(OCC3CCN(Cc4cccc(Cl)c4)CC3)cccc2n1 [Example-002, 5-[1-(3-chlorobenzyl)-piperidin-4-ylmethoxy]-quinazoline-2,4-diamine] | –
> 100000 nM | < 1000 nM | – | CCC(CC)C(=O)N1CCC(COc2cccc3nc(N)nc(N)c23)CC1 [Example-067] | –
> 100000 nM | < 1000 nM | – | Nc1nc(N)c2c(OCC3CCN(CC4CCCCC4)CC3)cccc2n1 [Example-141] | –
> 100000 nM | < 1000 nM | – | Nc1nc(N)c2c(OCC3CCN(C(=O)C4CCCC4)CC3)cccc2n1 [Example-069] | –
> 100000 nM | – | < 1000 nM | Nc1nc(N)c2c(OCC3CCN(C(=O)CC4CC5CCC4C5)CC3)cccc2n1 (centres unmarked) [Example-053] | –
< 20000 nM | – | – | Nc1nc(N)c2c(OCC3CCN(Cc4ccc(Cl)c(Cl)c4)CC3)cccc2n1 [Example-038] | –
– | – | < 1000 nM | Nc1nc(N)c2c(OCC3CCN(S(=O)(=O)c4ccc(F)cc4)CC3)cccc2n1 [Example-111] | –
– | – | < 1000 nM | CC(C)(C)C(=O)N1CCC(COc2cccc3nc(N)nc(N)c23)CC1 [Example-048] | –
– | – | < 1000 nM | Nc1nc(N)c2c(OCC3CCN(C(=O)c4ccccc4I)CC3)cccc2n1 [Example-041] | –
– | – | < 1000 nM | CS(=O)(=O)c1ccc(S(=O)(=O)N2CCC(COc3cccc4nc(N)nc(N)c34)CC2)cc1 [Example-086] | –
